Consider one molecule from US20080132466A1, “Blood Cholesterol Reducing Oral Composition” (priority 2005, published 2008).

The test system of this experiment is Wister-ST male rats. The experiment is described as follows: Total plasma cholesterol lowering effect of DFA and isoflavone in combination, rats fed for 19 days. Format: in vivo. The following applies: 1.5% in isoflavone-containing feed. An excerpt:
A total plasma cholesterol lowering effect was studied using DFA and an isoflavone in combination.
After preliminary feeding 21 Wister-ST male rats (6 weeks of age) a non-isoflavone feed for 3 days, the animals were divided into 3 groups (each n=7) by a body weight stratification procedure and were individually fed for 19 days a basal feed containing 0.25% food product supplemented with 40% isoflavone (basal diet group), a feed in which cellulose in the basal feed was replaced with 1.5% (final) DFA III (DFA III group), and a feed in which cellulose in the basal feed was replaced with 1.5% (final) fructooligosaccharide (FOS group), as shown in Table 1. On the 20th day, blood samples were taken from the abdominal aorta to obtain plasma by centrifugation and the total plasma cholesterol was measured using an automatic analyzer (DRI-CHEM 3500, Fuji Film Medical).
In the table, figures with different alphabets, a and b, denote that there is a significant difference between the figures. […] The level of HDL cholesterol was slightly low in the DFA III group; however, the differences between the groups were not significant.

As for `OC[C@H]1O[C@@]2(CO[C@]3(CO)O[C@H](CO)[C@@H](O)[C@@H]3O2)[C@@H](O)[C@@H]1O` [DFA III, difructose anhydride], the “level of HDL cholesterol (in words)” value (differences between groups not significant) was “slightly low”. In addition, under “p=0.051 (Sheffe) basal diet vs DFA III”, the “total serum cholesterol level compared to the group fed an isoflavone alone (in words)” value is given as “tended to be lowered”.
